Data on one compound can be found in US20260355171A1, “INHIBITORS AND USES THEREFOR” (priority 2022, published 2026).

The test system of series [1] is primary neurons. Description: Neuronal cell death in the presence of H2O2. The class given is cell-based, mouse. As to conditions: 1 or 10 μM compound, 100 μM H2O2. As to the method: Primary neurons were treated with 0.4, 1, 2, 10 or 50 μM of compound 2 or compound 22 (prepared according to Example 2). NSP5 was added to primary neurons at DIV11, and compound 2 or 22 was added 48 hours later. Cells were treated with propidium iodide 48 hours after compound addition. Cells were washed with PBS and fixed with 4% PFA. Cells were then washed and stained with DAPI. Images of cells were taken with ZEISS Axioscan 7 microscope slide scanner. Cell death was determined by Image J analysis, counting the death cell (red, PI)) vs all cells (blue, DAPI).
One hour after compound addition (1 or 10 μM of compound 2 or compound 22) neurons were treated with a cytotoxic agent (100 μM N-methyl-D-aspartate (NMDA), 100 μM H2O2 or 5 μM staurosporine). One hour after treatment with the cytotoxic agent, the media was replaced with fresh media and the neurons were incubated for 24 hours. A final concentration of 1 μM propidium iodide (PI) was added into the well and incubated for 5 mins. Cells were washed with phosphate-buffered saline (PBS) and then fixed with 4% PFA. Cells were then washed and stained with DAPI, and cell death determined as described above.

Series [2] is described as follows: In vivo whole blood-to-plasma ratio. Conditions: IV 3 mg/kg, 1 h post dose, mouse blood, n=3; read-out: B/P ratio (whole blood-to-plasma). As to the method:
As part of the assessment of the IV pharmacokinetics, blood was collected from mice (n=3) at 1 h post dose for the purposes of determining the whole blood-to-plasma (B/P) ratio.
Blood was collected via cardiac puncture (whilst under gaseous isoflurane anaesthesia) into tubes containing heparin. The haematocrit was determined via centrifugation [13000×g for 4 min using a Clemets® Microhematocrit centrifuge (Clements, Rydalmere, Australia) and Safecap® Plain Self-sealing Mylar Wrapped capillary tubes (Safe-Tec Clinical Products LLC, Broomall, USA)], and values ranged from 32% to 36% for blood samples across the three mice.
Each blood aliquot (25 μL) was collected and matrix matched with an equivalent volume of blank plasma. The remainder of the blood sample was centrifuged and 1×25 μL plasma aliquot was collected and matrix matched with an equivalent volume of blank blood. Samples were frozen on dry ice and subsequently stored at −80 °C until analysis by LC-MS. The B/P ratio was calculated on the basis of the LC-MS response of compound 22 in blood and plasma following centrifugation of whole blood and the average B/P ratio (n=3 mice) is reported.

Series [3] relates to primary neurons expressing SARS-CoV-2 NSP5 (AAV9-NSP5-V5). Description: Effect on neurons in the presence of NSP5 (AAV9-NSP5-V5, immunofluorescence). It counts as cell-based, mouse. As to conditions: 0.4, 2, 10 or 50 μM, two days.
Series [4] deals with PHP.B hSyn-NSP5-V5 adeno-associated virus. Description: Hanging wire test. It counts as in vivo, mouse. Conditions: 10 mg/kg daily, vs Paxlovid and vehicle. As to the method:
In vivo testing was performed on 5-month-old female C57BL/6 wildtype mice injected intravenously with PHP.B hSyn-NSP5-V5 adeno-associated virus (AAV) and treated daily with compound 22 (10 mg/kg), Paxlovid (nirmatrelvir/ritonavir) (10 mg/kg nirmatrelvir: 3.33 mg/kg ritonavir) or a vehicle control (n=10 per group).
Motor testing was performed on the Rota-rod five times daily over a three-day testing period as previously described (refer to Ke et al. (2015) Acta Neuropathol, 130: 661-678). Motor coordination was also assessed using the hanging wire test at 14 and 22 days post injection with the AAV, which assessed the time hanging upside down on a wire grid (refer to Chan et al. (2020) Am J Path, 190(8): 1713-1722). Anxiety, disinhibition and exploratory behaviour was assessed using the elevated plus maze (EPM) test as previously described (refer to Ke et al. (2015) Acta Neuropathol, 130: 661-678).

Series [5] relates to primary neurons. Description: Effect of compounds on neuronal cell death caused by NSP5 (Example 6). The class given is cell-based, mouse. Conditions: 10 μM, 48 hours.

On to `NC(=O)C1CCN(c2ncccc2CNCc2cccc3[nH]ccc23)CC1` [Compound 22], for which, in series [1], the “Protection from H2O2-induced neurotoxicity” value is “did not protect”. In addition, the blood plasma ratio at 1 h in series [2] worked out at 1.4. Further, the “Prevention of NSP5-induced neuronal death” value in series [3] is “prevented NSP5-induced neuronal death in a dose-dependent manner”. The “Hanging wire test, mice reaching maximum time” value in series [4] (14 days post AAV) and in series [4] (22 days post AAV) was “more compound 22-treated mice reaching the maximum time” throughout. Further, the “Reduction of neuronal cell death caused by NSP5” value in series [5] is recorded as “greatest activity”.
